# Source: patent US11248022B2, “Glypican-3 peptide reagents and methods” (THE REGENTS OF THE UNIVERSITY OF MICHIGAN, priority 2017, dated 2022)
# Read-outs that look alike come from different tables or passages of the source. Ends that are not written are not given here.
# Legend:
# Hep3B human HCC cells = experiment: Confocal microscopy of peptide binding to Hep3B cells; type: cell-based
# Description: FIGS. 6-2A-Q show validation of specific peptide binding to cells in vitro. […] The Hep3B versus SK-Hep1 difference was also larger for antibody than QLE (P=2.3×10^−8, 6.0-fold larger). Intensity was measured with 6 replicates per condition and fitted to an ANOVA model with terms for 9 means to log-transformed data. […] We further validated specific peptide binding to GPC3 using siRNA knockdown. […] Q) Quantified fluorescence intensities. The siCL vs siGPC3 difference was 7.4 times bigger for ALL than the same difference for QLE (P=7.8×10^−5), and the difference for antibody was 8.9 times bigger than for QLE (P=2.5×10^−5), by ANOVA on log-transformed data. Results are an average of 6 images collected independently.
# On confocal microscopy, it was shown that ALL*-Cy5.5 binds to the surface (arrows) of cells with different levels of GPC3 expression. […] GPC3 is highly overexpressed in Hep3B cell cytosol and membrane while moderately expressed in HepG2 cells. No GPC3 expression is observed in SK-Hep1 cells. Tubulin serves as loading control for either cytosol or membrane fractions loaded.
# Hep3B cells = experiment: Apparent association time constant on Hep3B cells by flow cytometry; type: binding, human
# Description: The apparent association time constant (k) was also measured for the optimized GPC3 peptide to provide an assessment of how rapidly the peptide binds. The ALL*-Cy5.5 peptide reagent was incubated with Hep3B cells over time intervals ranging from 0 to 40 min. Fluorescence intensities were measured on flow cytometry. The median fluorescence intensity (y) was ratioed with that of Hep3B cells without addition of peptide reagent at different time points (t).
# [1] = Biodistribution of peptide in excised organs; type: in vivo, mice; conditions: excised organs 2 hours post injection, n=5
# Description: To assess the biodistribution of peptide probe, mice (n=5) were sacrificed 2 hours after injection of 250 μL of 300 μM ALL*-Cy5.5 using a fluorescence imaging system (IVIS Spectrum, PerkinElmer, Mass.). The organs were harvested and imaged ex vivo. Mice injected with scrambled control peptide, QLE*-Cy5.5 and free dye Cy5.5 were imaged with the same filters and exposure time. Absence of auto fluorescence was confirmed in PBS injected mice. The amount of fluorescent signal in each organ was quantified as a percentage of total fluorescence signal (p/s) in each mouse. Ex vivo fluorescence images taken of internal organs as well as resected tumor 2 hours post injection of probes are shown in FIG. 10A. Free Cy5.5 dye and Cy5.5 labeled targeting and scrambled peptides accumulated most in the liver and kidneys of mice, followed by GI tract and spleen.
# [2] = system: HCC xenograft tumor overexpressing GPC3; experiment: In vivo handheld dual axes confocal endomicroscope imaging; parameters: species or system mice
# Description: GPC3 expression from human HCC xenograft tumors was evaluated in real time by collecting optical sections in vivo using a handheld 5.5 mm diameter dual axes confocal endomicroscope. A solid-state diode laser (300 mW, CNI Laser Inc.) provided illumination at λex=671 nm. A parabolic mirror focused the illumination and collection beams to overlap below the tissue surface with lateral and axial resolution of 2 and 5 μm, respectively. A compact, 3D monolithic scanner located in the distal tip provided large vertical displacements and wide angular deflections to produce images in the vertical (XZ) and horizontal (XY) planes with a FOV of 1000×430 and 1000×1000 μm^2, respectively. NIR fluorescence is collected and passes through a band pass filter (FF01-716/40-25, Semrock) that transmits from 696-736 nm with >93% efficiency for detection with a photomultiplier tube (PMT, H7422PA-40, Hamamatsu) detector. The peptides were injected via the tail vain, and dissected away the skin overlying the tumor to gain access. The distal tip of the endomicroscope was placed in contact with the tumor using a drop of saline to couple the light. Laser power <2 mW on the tissue was used to avoid photobleaching. NIR fluorescence images were collected at 5 frames per sec. 3D volumetric images were reconstructed from a series of images collected in the vertical plane using Amira software (ver 5.4.3, FEI Corporation).
# The probe was small enough to be comfortably held in the surgeon's hand during surgery, FIG. 12A, for in vivo imaging of biomarker expression. Its diameter was 5.5 mm and delivered 671 nm near-infrared laser at 2 mW. Mouse carrying HCC xenograft tumor overexpressing GPC3 was first injected with 250 μL 300 μM ALL*-Cy5.5 peptide intravenously and after 2 hours the probe was held in contact with exposed subcutaneous tumor to acquire in vivo peptide binding images, FIG. 12B. Images were collected in either the vertical or horizontal plane with 430 μm depth or 1000×1000 μm^2 area, respectively, at 5 frames per second. With measured lateral resolution of 2.49 μm and axial resolution of 4.98 μm, each peptide stained cell can be clearly seen (arrows). […] Strong uptake (arrows) of ALL*-Cy5.5 in tumor was captured on optical sections collected in the horizontal (1000×1000 μm^2, Video 1) FIG. 12C and vertical (1000×430 μm^2, Video 2) FIG. 12D planes, respectively. A series of vertical cross-section images were reconstructed into 3D MIP volume (Video 3), FIG. 12E.
# SK-Hep1 xenograft tumors = experiment: Immunostaining on GPC3 negative SK-Hep1 xenograft sections; parameters: species or system mice; conditions: no GPC3 expression
# From the text: FIGS. 18A-D show immunostaining on GPC3 negative HCC xenograft tumor.
# The specimens were also sectioned for collection of confocal images to perform microscopic validation of peptide binding ex vivo.
# human HBV-derived HCC = experiment: Immunofluorescence on human HBV-derived HCC specimens; conditions: 5 μM, 15 min
# Description: Formalin-fixed specimens of HBV-derived HCC from the bio-bank at the Peking University People's Hospital were used. The specimens were deparaffinized, and antigen retrieval was performed using standard methods. Specimens of HCC and non-tumorous liver were cut in 10 μm sections, and incubated with the ALL*-Cy5.5 peptide reagent at a concentration of 5 μM in 1× PBS for 15 min at RT. The sections were washed 3× with PBS and incubated overnight at 4° C. with a 1:1000 dilution of primary anti-GPC3 antibody (Santa Cruz Biotechnology, 1G12, sc-65443) overnight at 4° C. The sections were washed with PBS 3× and incubated with 1:500 dilution of Alexa Fluor 488-labeled secondary goat […] antibody (Invitrogen) for 1 hour at RT. The sections were fixed with 4% PFA for 10 min. The sections were then mounted with ProLong Gold reagent containing DAPI (Invitrogen). Confocal fluorescence images were collected with DAPI, FITC and Cy5.5 filters. A Pearson's correlation coefficient will be measured to assess co-localization of peptide and antibody binding.
# [3] = system: GPC3 positive tumor (from Hep3B cells); experiment: In vivo whole body fluorescent imaging of HCC xenograft; conditions: 2 hours post injection
# Description: Mice bearing HCC xenograft tumor (arrowheads) were i.v. injected with 250 μL of 300 μM near NIR GPC3 targeting peptide ALL*-Cy5.5, scrambled control peptide QLE*-Cy5.5 and unlabeled Cy5.5 free dye alone. ALL*-Cy5.5 was also injected in mice bearing GPC3 negative tumor (from SK Hep-1 cells, arrows) as control of EPR effect. Pre-injection imaging confirmed no autofluorescence was present.
sequence,measurement,setting,value
ALLANHEELFQT (SEQ ID NO: 1) peptide labeled with Cy5.5 via a GGGSK linker on the C-terminus (ALLANHEELFQTGGGSK-{Cy5.5}) [ALL*-Cy5.5],intensity difference Hep3B vs SK-Hep1 relative to the same difference for QLE*,"Hep3B human HCC cells; 6 replicates, log-transformed data",8.2 fold
same,fluorescence intensity from binding to cell surface,"Hep3B human HCC cells; Hep3B cells, confocal microscopy",strong fluorescence intensity
same,apparent association time constant k,Hep3B cells,0.11 min⁻¹
same,onset of binding,Hep3B cells,9.1 min
same,apparent association time constant k,Hep3B cells; FIG. 8B legend,0.11 min⁻¹
same,"signal in the tumor vs scrambled probe, GPC3 negative tumor, free dye",[1],significantly higher
same,fluorescent signal relative to QLE*-Cy5.5,[2]; 2 hours after i.v. injection,2.9 fold
same,fluorescent intensity at tumor,"[2]; 2 hours after i.v. injection, n=8",47±13
same,uptake/staining in tumor on optical sections,[2]; horizontal and vertical planes,Strong uptake
same,staining of xenograft sections,SK-Hep1 xenograft tumors,No staining
same,binding to section of HBV-derived HCC on immunofluorescence,human HBV-derived HCC,strong binding
same,"mean tumor signal vs scrambled peptide, GPC3 negative tumor and free dye",[3],significantly higher
same,target-to-background (T/B) ratio,[3]; mean±SD,3.91±0.58
